Source: US6107308A, “Piperidine derivatives” (Kowa Co., Ltd., priority 1997, dated 2000)
Counter-ions that a name gives are not always drawn.

What was measured:
H1 receptor [1] = molecular target: H1 receptor (Cavia porcellus, UniProt P31389); test: biochemical; format: binding, guinea pig
Experimental: H1 receptor binding inhibitory test:
Reaction was stopped by addition of ice-cold phosphate buffer, and immediately thereafter, the reaction mixture was filtered by use of a Wattman CF/C filter. The filter was washed twice, each time with 20 ml ice-cold buffer. Radioactivity of the residue was measured by use of a liquid scintillation counter. From the value as obtained when a test compound was not added and values as obtained when the test compound was added at different concentrations, there was determined a dose-response curve representing suppression action of the test compound, from which a 50% inhibitory concentration (IC50) was obtained. Based on the IC50 value and by use of the Cheng-Prusoff equation, a dissociation constant (KD) was calculated (Table 4). In a saturation test, 10^-4 M R(-)-dimethindene was used for the measurement of the amount of non-specific binding.

LTD4 Receptor = molecular target: T1, LTD4 Receptor (Cavia porcellus, UniProt Q2NNR5); test: LTD4 Receptor binding inhibitory test ([^3 H] leukotriene D4); parameters: species or system guinea pig
T1 construct: guinea pig lung protein; from tissue; host or cells: guinea pig lung
T1 sequence (Q2NNR5 1-340): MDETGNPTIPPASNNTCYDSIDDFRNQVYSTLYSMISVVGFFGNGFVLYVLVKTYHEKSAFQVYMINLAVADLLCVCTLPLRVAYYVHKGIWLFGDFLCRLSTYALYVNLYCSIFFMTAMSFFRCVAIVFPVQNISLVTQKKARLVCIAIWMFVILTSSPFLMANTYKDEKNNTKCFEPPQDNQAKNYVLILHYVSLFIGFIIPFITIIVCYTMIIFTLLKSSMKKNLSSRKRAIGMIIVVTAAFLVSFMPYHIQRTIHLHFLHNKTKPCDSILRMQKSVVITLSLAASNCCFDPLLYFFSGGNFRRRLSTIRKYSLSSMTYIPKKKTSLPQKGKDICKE
Experimental: LTD4 Receptor binding inhibitory test:
Reaction was stopped by addition of ice-cold Tris-HCl/NaCl (10 mM/100 mM, pH 7.5) buffer, and immediately thereafter, the reaction mixture was filtered by use of a Wattman CF/C filter. The filter was washed twice, each time with 20 ml ice-cold buffer. Radioactivity of the residue was measured by use of a liquid scintillation counter. […] In a saturation test, 2 μM leukotriene D4 was used for the measurement of the amount of non-specific binding.

[2] = test system: leukotriene D4 (LTD4)-induced contraction of guinea pig ileum; test: Antileukotriene action (in vitro test), isotonic contraction of isolated ileum induced with LTD4; conditions: Cavia porcellus; test compound 10^-5 M, contraction with 10^-8 M LTD4; read-out: LTD4 action (inhibition exerted by a test compound at 10^-5 M)
Experimental: (§1) Antihistaminic action and antileukotriene action (in vitro test):
(§2) A guinea pig was subjected to ileectomy, and the ileum was cut to have a length of about 2 cm. Each piece of ileum was suspended in a Tyrode's buffer placed in a 20-ml organ bath. Isotonic contraction in response to histamine or leukotriene D4 was recorded by use of a recording apparatus. The Tyrode's buffer was aerated with a gas mixture (95% O2 -5% CO2) while the temperature of the buffer was maintained at 30° C. Antihstaminic activity was tested by adding 10^-8 to 10^-4 M histamine to the organ bath and obtaining a dose-response curve. After washing with a buffer several times, a test compound was added to the organ bath. Thirty minutes later, another dose-response curve of histamine was obtained. For the test of antileukotriene activity, effects exerted by addition of a 10^-5 M test compound on the contraction included with 10^-8 M LTD4 was investigated.

[3] = molecular target: histamine-induced contraction of guinea pig ileum (Cavia porcellus, UniProt P31389); test: Antihistaminic action (in vitro test), isotonic contraction of isolated ileum in response to histamine; conditions: histamine 10^-8 to 10^-4 M, 30 min after addition of test compound; for Kb: read-out: Anti-histaminic action pA2 (converted)
Experimental: as §1, §2

H1 receptor [4] = molecular target: T2, H1 receptor (Mus musculus, UniProt P70174); test: Test on migration into the brain (ex vivo [^3 H]mepyramine binding in mouse brain after intraperitoneal administration); parameters: species or system mice; conditions: ip
T2 construct: from tissue; host or cells: mouse brain homogenate after intraperitoneal dosing
Experimental: Test on migration into the brain:
The test was performed in accordance with a method described by Zang. […] Briefly, several mice each weighing 20-23 g were provided, and to each mouse was intraperitoneally administered a test sample having a predetermined concentration. One hour later, each mouse was sacrificed and its brain was removed. The brain tissue was mixed with 30 mM Na, K phosphate buffer (pH 7.5) so as to attain a concentration of 40 ml/g wet weight, and the mixture was homogenized. […] The mixture was incubated at 37° C. for 50 minutes. Subsequently, reaction was stopped by addition of ice-cold phosphate buffer, and immediately thereafter, the reaction mixture was filtered by use of a Wattman CF/C filter. The filter was washed twice, each time with 20 ml ice-cold buffer. Radioactivity of the residue was measured by use of a liquid scintillation counter. […] The cerebral migration index, BPindex, was calculated from the following equation.
BPindex=IC50 (mg/kg)/dissociation constant for H1 recepters (nM)

[5] = test system: leukotriene D4 (LTD4)-induced contraction of guinea pig ileum; test: Antileukotriene action (in vitro test), isotonic contraction of isolated ileum induced with LTD4; conditions: Cavia porcellus; contraction with 10^-8 M LTD4

histamine-induced contraction of guinea pig ileum, sequence (P31389 whole entry): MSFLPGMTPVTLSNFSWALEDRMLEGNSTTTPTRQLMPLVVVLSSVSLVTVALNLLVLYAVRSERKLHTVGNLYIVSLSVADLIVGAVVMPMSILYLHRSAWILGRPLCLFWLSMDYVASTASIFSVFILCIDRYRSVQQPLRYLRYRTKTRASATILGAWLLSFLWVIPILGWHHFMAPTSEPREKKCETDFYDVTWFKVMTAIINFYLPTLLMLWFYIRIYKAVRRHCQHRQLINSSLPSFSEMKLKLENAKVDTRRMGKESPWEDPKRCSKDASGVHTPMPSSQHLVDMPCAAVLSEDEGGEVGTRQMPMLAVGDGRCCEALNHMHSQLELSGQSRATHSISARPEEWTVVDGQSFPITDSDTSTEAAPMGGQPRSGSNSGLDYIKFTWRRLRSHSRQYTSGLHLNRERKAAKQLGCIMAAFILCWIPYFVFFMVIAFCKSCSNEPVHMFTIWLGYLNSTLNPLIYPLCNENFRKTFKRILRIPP
H1 receptor (Cavia porcellus, UniProt P31389), sequence (P31389 whole entry): as above
T2 sequence (P70174 whole entry): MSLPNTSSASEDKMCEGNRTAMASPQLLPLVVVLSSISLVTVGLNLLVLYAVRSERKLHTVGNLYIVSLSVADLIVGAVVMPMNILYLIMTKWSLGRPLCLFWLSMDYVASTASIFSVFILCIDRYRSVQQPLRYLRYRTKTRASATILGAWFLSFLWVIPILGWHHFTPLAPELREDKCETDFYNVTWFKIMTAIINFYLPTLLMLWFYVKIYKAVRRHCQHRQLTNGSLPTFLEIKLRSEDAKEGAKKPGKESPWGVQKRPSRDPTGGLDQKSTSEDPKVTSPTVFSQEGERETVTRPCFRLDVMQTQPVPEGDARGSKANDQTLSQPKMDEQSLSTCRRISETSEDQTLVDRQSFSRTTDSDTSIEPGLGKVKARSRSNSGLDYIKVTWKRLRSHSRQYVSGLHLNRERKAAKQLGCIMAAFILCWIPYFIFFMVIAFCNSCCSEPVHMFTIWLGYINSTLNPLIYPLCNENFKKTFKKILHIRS

Structure (SMILES): O=C1NCCCc2cc(OCCCN3CCC(=Cc4ccc5ccccc5n4)CC3)ccc21 [Example 13, 7-[3-[4-(2-Quinolylmethylene)piperidino]propoxy]-2,3,4,5-tetrahydro-1H-benz[c]azepin-1-one oxalate]
- Kd (H1 receptor [1]): 1.15 nM
- Kd (LTD4 Receptor): 19000 nM
- inhibition at 10 µM [2]: 39%
- Kb [3]: 0.174 nM

Structure (SMILES): C(=C1CCN(CCCOc2ccc3c(c2)CCCc2nnnn2-3)CC1)c1ccc2ccccc2n1 [Example 14, 8-[3-[4-(2-Quinolylmethylene)piperidino]propoxy]-5,6-dihydro-4H-tetrazolo[1,5-a]benz[b]azepine oxalate]
- Kd (LTD4 Receptor): 98900 nM
- inhibition at 10 µM [2]: 40%
- Kb [3]: 0.0525 nM

Structure (SMILES): Cc1ccc(OCCCN2CCC(=Cc3ccc4ccccc4n3)CC2)c2ccc(=O)[nH]c12 [Example 11, 8-Methyl-5-[3-[4-(2-quinolylmethylene)-piperidino]propoxy]carbostyryl]
- Kd (LTD4 Receptor): 20000 nM
- inhibition at 10 µM [2]: 39%
- Kb [3]: 0.219 nM

Structure (SMILES): O=C1CCCc2cc(OCCCN3CCC(=Cc4ccc5ccccc5n4)CC3)ccc2N1 [Example 12, 7-[3-[4-(2-Quinolylmethylene)piperidino]propoxy]-2,3,4,5-tetrahydro-1H-benz[b]azepin-2-one oxalate]
- Kd (H1 receptor [1]): 0.0238 nM
- Kd (LTD4 Receptor): 15800 nM
- inhibition at 10 µM [2]: 12%
- Kb [3]: 0.178 nM

Structure (SMILES): O=C1CCc2cc(OCCN3CCC(=Cc4ccc5ccccc5n4)CC3)ccc2N1 [Example 4, 6-[2-[4-(2-Quinolylmethylene)piperidino]ethoxy]-1,2,3,4-tetrahydroquinolin-2-one]
- Kd (H1 receptor [1]): 164 nM
- Kd (LTD4 Receptor): 12700 nM

Structure (SMILES): O=C1CSc2cc(OCCCN3CCC(=Cc4ccc5ccccc5n4)CC3)ccc2N1 [Example 2, 7-[3-[4-(2-Quinolylmethylene)piperidino]propoxy]-3,4-dihydro-2H-1,4-benzothiazin-3-one]
- inhibition at 10 µM [2]: 21%
- Anti-histaminic action pD'2 [3]: 8.22

Structure (SMILES): Cc1ccc(OCCCN2CCC(=Cc3ccc4ccccc4n3)CC2)c2c1NC(=O)CC2 [Example 3, 8-Methyl-5-[3-[4-(2-quinolylmethylene)piperidino]propoxy]-1,2,3,4-tetrahydroquinolin-2-one]
- Kd (LTD4 Receptor): 55000 nM
- inhibition at 10 µM [2]: 77%
- Kb [3]: 0.141 nM

Structure (SMILES): Cc1ccc(OCCCN2CCC(Cc3ccc4ccccc4n3)CC2)c2c1NC(=O)C2(C)C [Example 15, 4-[3-[4-(2-quinolylmethyl)piperidino]-propoxy]-3,3,7-trimethyl-2,3-dihydro-1H-indol-2-one]
- Kd (H1 receptor [1]): 3.1 nM
- Kd (LTD4 Receptor): 8060 nM
- inhibition at 10 µM [2]: 19%
- Kb [3]: 0.324 nM

Structure (SMILES): O=C1CCc2cccc(OCCCN3CCC(=Cc4ccc5ccccc5n4)CC3)c2N1 [Example 8, 8-[3-[4-(2-Quinolylmethylene)piperidino]propoxy]-1,2,3,4-tetrahydroquinolin-2-one oxalate]
- inhibition at 10 µM [2]: 30%
- Kb [3]: 0.224 nM

Structure (SMILES): Cc1ccc(OCCCN2CCC(Cc3ccc4ccccc4n3)CC2)c2ccc(=O)[nH]c12 [Example 26, 8-Methyl-5-[3-[4-(2-quinolylmethyl)-piperidino]propoxy]carbostyryl]
- inhibition at 10 µM [2]: 29%
- Kb [3]: 0.162 nM

Structure (SMILES): Cc1ccc(OCCN2CCC(=Cc3ccc4ccccc4n3)CC2)c2ccc(=O)[nH]c12 [Example 10, 8-Methyl-5-[2-[4-(2-quinolylmethylene)-piperidino]ethoxy]carbostyryl]
- selectivity ratio at 1 h (H1 receptor [4]; brain, BPindex = IC50 (mg/kg)/dissociation constant for H1 receptors (nM), read-out: cerebral migration index, BP index): 930
- ED50 (H1 receptor [4]; 1 h, read-out: IC50 (ex vivo)): 33 mg/kg
- Kd (H1 receptor [1]): 0.0351 nM
- Kd (LTD4 Receptor): 9860 nM
- inhibition at 10 µM [2]: 61%
- Kb [3]: 0.0832 nM

Structure (SMILES): Cc1ccc(OCCN2CCC(Cc3ccc4ccccc4n3)CC2)c2ccc(=O)[nH]c12 [Example 25, 8-Methyl-5-[2-[4-(2-quinolylmethyl)-piperidino]ethoxy]carbostyryl]
- IC50 [5]: 3400 nM
- inhibition at 10 µM [2]: 88%
- Kb [3]: 0.468 nM

Structure (SMILES): O=C1CSc2cc(OCCCN3CCC(Cc4ccc5ccccc5n4)CC3)ccc2N1 [Example 16, 7-[3-[4-(2-Quinolylmethyl)piperidino]propoxy]-3,4-dihydro-2H-1,4-benzothiazin-3-one]
- inhibition at 10 µM [2]: 15%
- Anti-histaminic action pD'2 [3]: 8.01

Structure (SMILES): Cc1ccc(OCCN2CCC(Cc3ccc4ccccc4n3)CC2)c2c1NC(=O)CC2 [Example 17, 8-Methyl-5-[2-[4-(2-quinolylmethyl)piperidino]ethoxy]-1,2,3,4-tetrahydroquinolin-2-one]
- inhibition at 10 µM [2]: 23%
- Kb [3]: 0.166 nM

Structure (SMILES): O=C1CCc2cc(OCCCN3CCC(=Cc4ccc5ccccc5n4)CC3)ccc2N1 [Example 5, 6-[3-[4-(2-Quinolylmethylene)piperidino]propoxy]-1,2,3,4-tetrahydroquinolin-2-one]
- Kd (H1 receptor [1]): 0.0469 nM
- Kd (LTD4 Receptor): 54400 nM

Structure (SMILES): O=C1CCc2ccc(OCCCN3CCC(=Cc4ccc5ccccc5n4)CC3)cc2N1 [Example 9, 7-[3-[4-(2-Quinolylmethylene)piperidino]propoxy]-1,2,3,4-tetrahydroquinolin-2-one oxalate]
- inhibition at 10 µM [2]: 15%
- Kb [3]: 2.95 nM
